From US7105675B2, “Pyridomorphinans, thienomorphinans and use thereof” (Southern Research Institute, priority 1999, dated 2006)
Read-outs that look alike come from different tables or passages of the source.

Assays:
μ opioid receptor = target: T1, μ opioid receptor (Rattus norvegicus, UniProt P33535); test: Radioligand binding, mu sites, displacement of [3H]DAMGO in rat brain membranes
T1 construct: Rat membranes were prepared each day using a partially thawed frozen rat brain; from tissue; host or cells: rat brain membranes
Description: (§1) Radioligand Binding Assays. Mu binding sites were labeled using [^3H]DAMGO (1–3 nM). Rat membranes were prepared each day using a partially thawed frozen rat brain which was homogenized with a polytron in 10 mL/brain of ice cold 10 mM Tris-HCl, pH 7.0. Membranes were then centrifuged twice at 30,000 g for 10 min and resuspended with ice-cold buffer following each centrifugation. After the second centrifugation, the membranes were resuspended in 50 mM Tris-HCl, pH 7.4 (50 mL/brain) at 25° C. Incubations proceeded for 2 h at 25° C. in 50 mM Tris-HCl, pH 7.4, along with a protease inhibitor cocktail (PIC). The nonspecific binding was determined using 20 μM of levallorphan. Delta binding sites were labeled using [^3]DADLE (2 nM) and rat brain membranes. Rat membranes were prepared each day using a partially thawed frozen rat brain which was homogenized with a polytron in 10 mL/brain of ice cold 10 mM Tris-HCl, pH 7.0. Membranes were then centrifuged twice at 30,000 g for 10 min and resuspended with ice-cold buffer following each centrifugation. After the second centrifugation, the membranes were resuspended in 50 mM Tris-HCl, pH 7.4 (50 mL/brain) at 25° C. Incubations proceeded for 2 h at 25° C. in 50 mM Tris-HCl pH 7.4, containing 100 mM choline chloride, 3 mM MnCl2, and 100 nM DAMGO to block binding to μ sites, and PIC. Nonspecific binding was determined using 20 μM levallorphan. Kappa binding sites were labeled using [^3H]U69,593 (2 nM). Guinea pig brain membranes were prepared each day using partially thawed guinea pig brain which was homogenized with a polytron in 10 mL/brain of ice cold 10 mM Tris-HCl pH 7.0. The membranes were then centrifuged twice at 30,000 g for 10 min and resuspended with ice-cold buffer following each centrifugation. After the second centrifugation, the membranes were resuspended in 50 mM Tris-HCl, pH 7.4 (75 mL/brain) at 25° C. Incubations proceeded for 2 h at 25° C. in 50 mM Tris-HCl, pH 7.4, containing 1 μg/mL of captopril and PIC. Nonspecific binding was determined using 1 μM U69,593. Each ^3H ligand was displaced by 8–10 concentrations of test drug, two times. Compounds were prepared as 1 mM solution with 10 mM Tris buffer (pH 7.4) containing 10% DMSO before drug dilution. All drug dilutions were done at 10 mM Tris-HCl, pH 7.4, containing 1 mg/mL bovine serum albumin. All washes were done with ice-cold 10 mM Tris-HCl, pH 7.4. The IC50 and slope factor (N) were obtained by using the program MLAB-PC (Civilized Software, Bethesda, Md.). Ki values were calculated according to the equation Ki=IC50/(1+[L]/Kd).

δ opioid receptor = δ opioid receptor (Rattus norvegicus, UniProt P33533); test: Radioligand binding, delta sites, displacement of [3H]DADLE in rat brain membranes; parameters: Rat membranes were prepared each day using a partially thawed frozen rat brain; from tissue; host or cells: rat brain membranes; details: for Selectivity Ratio κ1δ / Selectivity Ratio μ/δ: ratio of Ki values
Description: as §1

[1] = target: T2, δ opioid receptor (DPDPE) in MVD (Mus musculus, UniProt P32300); test: Antagonist activity against DPDPE in electrically stimulated mouse vas deferens (MVD); format: cell-based; details: for antagonist activity DPDPE (δ) MVD IC50 ratio: 1 μM compound, 30 min incubation, IC50 of DPDPE with antagonist divided by control IC50; for Ke selectivity ratio μδ: Ke GPI (μ) over Ke MVD (δ)
T2 construct: Electrically-induced smooth muscle contractions of mouse vas deferens and strips of guinea pig ileum longitudinal muscle myenteric plexus were used; from tissue; host or cells: mouse vas deferens (male ICR mice)
Description: (§2) Bioassays in GPI and MVD smooth muscle preparations. Electrically-induced smooth muscle contractions of mouse vas deferens and strips of guinea pig ileum longitudinal muscle myenteric plexus were used. Tissues came from maile ICR mice weighing 25–40 g and male Hartley guinea pigs weighing 250–500 g. The tissues were tied to gold chain with suture silk, suspended in 20 mL baths containing 37° C. oxygenated (95% O2, 5% CO2) Krebs bicarbonate solution (magnesium free for the MVD), and allowed to equilibrate for 15 min. The tissues were then stretched to optimal length previously determined to be 1 g tension (0.5 g for MVD) and allowed to equilibrate for 15 min. The tissues were stimulated transmurally between platinum wire electrodes at 0.1 Hz, 0.4 ms pulses (2-ms pulses for MVD), and supramaximal voltage. An initial dose-response curve of DPDPE or PL-017 was constructed at the start of each assay to establish tissue effects, allowing each tissue to be used as its own control.
(§3) Tissues not producing typical results were not used. Experimental compounds were added to the baths in 14–60 μL volumes. Succeeding doses of argonist were added cumulatively to the bath at 3 minute intervals to produce a concentration-response curve. The tissues were then washed extensively with fresh buffer until the original contraction height was re-established. […] Antagonist effects to DPDPE and PL-017 were assayed after incubation of the tissues with 1 μM concentration of the compound in the bath for 30 minutes. The tissues were then washed with fresh buffer for 30 min, and the agonist dose-response curve was repeated. Rightward shifts in the dose-response curves were calculated by dividing the antagonized dose-response curve IC50 value by the unantagoniced IC50 value. IC50 values represent the mean of two to four tissues. IC50 estimates and their associated standard errors were determined by using a computerized nonlinear least-squares method.

mouse vas deferens = test: Agonist activity in MVD smooth muscle preparation, inhibition of contraction; format: cell-based; details: read-out: agonist activity MVD IC50 (nM) or % max resp
Description: as §2, §3

[2] = test system: μ opioid receptor (PL017) in GPI; test: Antagonist activity against PL-017 in electrically stimulated guinea pig ileum (GPI); format: cell-based; details: for antagonist activity PL017 (μ) GPI IC50 ratio: 1 μM compound, 30 min incubation, IC50 of PL-017 with antagonist divided by control IC50; for antagonist activity PL017 (μ) GPI Ke: Ke = [antagonist]/(IC50 ratio − 1), PL-017 as agonist, n = 3
Description: as §2, §3

κ1 opioid receptor = target: T3, κ1 opioid receptor (Cavia porcellus, UniProt P41144); test: Radioligand binding, kappa sites, displacement of [3H]U69,593 in guinea pig brain membranes
T3 construct: Guinea pig brain membranes were prepared each day using partially thawed guinea pig brain; from tissue; host or cells: guinea pig brain membranes
Description: as §1

[3] = test system: guinea pig ileum longitudinal muscle myenteric plexus; test: Agonist activity in GPI smooth muscle preparation, inhibition of contraction; format: cell-based; details: for inhibition at 1 µM: Cavia porcellus, read-out: agonist activity GPI IC50 (nM) or % max resp
Description: as §2, §3

[4] = pyridomorphinans, [3H]DAMGO (1.4–2.0 nM), rat brain membranes, read-out: Ki (nM) ± SEM μ
[5] = pyridomorphinans, [3H]U69,593 (1.2–2.2 nm), guinea pig brain membranes, read-out: Ki (nM) ± SEM κ1

T2 sequence (P32300 whole entry): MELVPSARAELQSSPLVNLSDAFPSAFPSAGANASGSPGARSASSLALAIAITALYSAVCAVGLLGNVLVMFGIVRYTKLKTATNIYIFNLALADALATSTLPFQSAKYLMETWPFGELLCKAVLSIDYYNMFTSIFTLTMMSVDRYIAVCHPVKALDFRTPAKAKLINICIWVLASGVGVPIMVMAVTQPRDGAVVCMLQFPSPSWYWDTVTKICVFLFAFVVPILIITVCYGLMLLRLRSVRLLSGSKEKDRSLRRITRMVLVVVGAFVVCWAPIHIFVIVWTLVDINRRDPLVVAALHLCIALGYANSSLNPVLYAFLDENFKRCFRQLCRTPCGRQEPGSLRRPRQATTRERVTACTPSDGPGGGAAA
T3 sequence (P41144 whole entry): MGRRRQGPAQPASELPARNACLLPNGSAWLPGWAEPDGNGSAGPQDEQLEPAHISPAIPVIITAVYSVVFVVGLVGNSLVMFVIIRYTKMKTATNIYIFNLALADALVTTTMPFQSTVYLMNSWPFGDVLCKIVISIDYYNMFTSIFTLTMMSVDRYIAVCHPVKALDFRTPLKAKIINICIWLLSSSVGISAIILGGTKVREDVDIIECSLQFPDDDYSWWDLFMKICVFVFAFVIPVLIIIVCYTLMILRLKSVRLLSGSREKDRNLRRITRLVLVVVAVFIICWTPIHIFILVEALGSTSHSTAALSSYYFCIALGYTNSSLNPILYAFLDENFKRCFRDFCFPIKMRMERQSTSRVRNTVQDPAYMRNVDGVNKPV
T1 sequence (P33535 whole entry): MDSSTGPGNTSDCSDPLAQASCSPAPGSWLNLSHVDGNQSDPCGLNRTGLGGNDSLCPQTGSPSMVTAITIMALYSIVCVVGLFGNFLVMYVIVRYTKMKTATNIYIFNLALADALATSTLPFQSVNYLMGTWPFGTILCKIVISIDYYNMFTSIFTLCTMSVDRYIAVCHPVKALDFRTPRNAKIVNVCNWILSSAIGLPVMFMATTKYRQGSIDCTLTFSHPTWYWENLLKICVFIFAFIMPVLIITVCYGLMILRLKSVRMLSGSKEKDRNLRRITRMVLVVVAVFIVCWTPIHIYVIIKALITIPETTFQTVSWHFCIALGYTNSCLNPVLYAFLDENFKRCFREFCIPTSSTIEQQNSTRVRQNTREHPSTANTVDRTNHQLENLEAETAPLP
Chain of δ opioid receptor (P33533 whole entry): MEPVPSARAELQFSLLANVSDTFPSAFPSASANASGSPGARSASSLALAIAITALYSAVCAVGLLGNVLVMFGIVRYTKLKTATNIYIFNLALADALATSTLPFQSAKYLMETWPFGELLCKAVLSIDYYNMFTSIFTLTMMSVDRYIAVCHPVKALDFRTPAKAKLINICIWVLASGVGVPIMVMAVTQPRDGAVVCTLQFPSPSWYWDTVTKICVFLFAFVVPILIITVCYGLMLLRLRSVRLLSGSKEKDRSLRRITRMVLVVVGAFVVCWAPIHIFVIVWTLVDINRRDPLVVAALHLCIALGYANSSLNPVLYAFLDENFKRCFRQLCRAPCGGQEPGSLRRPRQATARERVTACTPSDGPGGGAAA

| SMILES | Ki (μ opioid receptor) [nM] | Ki (δ opioid receptor) [nM] | Selectivity Ratio κ1δ (δ opioid receptor; pyridomorphinans) | Selectivity Ratio μ/δ (δ opioid receptor; pyridomorphinans) | Kb [1] [nM] | antagonist activity DPDPE (δ) MVD IC50 ratio [1] | Ke selectivity ratio μδ [1] | inhibition at 1 µM (mouse vas deferens) [%] | antagonist activity PL017 (μ) GPI IC50 ratio [2] | antagonist activity PL017 (μ) GPI Ke [2] [nM] | Ki (κ1 opioid receptor) [nM] | inhibition at 1 µM [3] [%] | Ki (μ opioid receptor; [4]) [nM] | Ki (κ1 opioid receptor; [5]) [nM] | Ki (δ opioid receptor; pyridomorphinans, [3H]DADLE (1.3–2.0 nM), rat brain membranes, 100 nM DAMGO to block μ-sites, read-out: Ki (nM) ± SEM δ) [nM] | Selectivity Ratio κ1δ (δ opioid receptor; thienomorphinans) | Selectivity Ratio μ/δ (δ opioid receptor; thienomorphinans) | agonist activity GPI IC50 (nM) or % max resp ([3]; percentage inhibition of contraction at 1 μM) [%] |
| --- | --- | --- | --- | --- | --- | --- | --- | --- | --- | --- | --- | --- | --- | --- | --- | --- | --- | --- |
| Oc1ccc2c3c1OC1c4ncc(Br)cc4CC4(O)C(C2)N(CC2CC2)CCC314 (stereo not drawn) [Compound 7b, 5′-Bromo-17-(cyclopropylmethyl)-6,7-didehydro-3,14-dihydroxy-4,5α-epoxypyrido[2′,3′:6,7]morphinan] | 15.5 ± 1 | 1.2 ± 0.13 | 46 | 13 | 3.1 | 325 ± 127 | 14 | 0 | 43.9 ± 25.6 | 23 | 55.7 ± 7 | 0 |  |  |  |  |  |  |
| N#Cc1cnc2c(c1)CC1(O)C3Cc4ccc(O)c5c4C1(CCN3CC1CC1)C2O5 (stereo not drawn) [Compound 7c, 5′-Cyano-17-(cyclopropylmethyl)-6,7-didehydro-3,14-dihydroxy-4,5α-epoxypyrido[2′,3′:6,7]morphinan] | 16 ± 1.8 | 4.5 ± 0.28 | 7.5 | 3.6 | 44 | 23.6 ± 2.2 |  | 0 | 2.2 ± 1.1 |  | 33.9 ± 2 | 0 |  |  |  |  |  |  |
| CCOC(=O)c1cnc2c(c1)C[C@@]1(O)[C@H]3Cc4ccc(O)c5c4[C@@]1(CCN3CC1CC1)[C@H]2O5 [Compound 7d, 5′-Carbethoxy-17-(cyclopropylmethyl)-6,7-didehydro-3,14-dihydroxy-4,5α-epoxypyrido[2′,3′:6,7]morphinan] |  |  |  |  | 20 |  |  | 0 |  | 74 |  | 0 | 37 ± 3.4 | 9.6 ± 0.93 |  |  |  |  |
| O=[N+]([O-])c1cnc2c(c1)CC1(O)C3Cc4ccc(O)c5c4C1(CCN3CC1CC1)C2O5 (stereo not drawn) [Compound 7e, 17-(Cyclopropylmethyl)-6,7-didehydro-3,14-dihydroxy-4,5α-epoxy-5′-nitropyrido[2′,3′:6,7]morphinan] | 17.5 ± 2 | 5.5 ± 0.67 | 17 | 3.2 | 51 | 20.7 ± 4.2 | 5.3 | 14 | 4.7 ± 0.59 | 271 | 92 ± 12.8 | 0 |  |  |  |  |  |  |
| Nc1cnc2c(c1)C[C@@]1(O)[C@H]3Cc4ccc(O)c5c4[C@@]1(CCN3CC1CC1)[C@H]2O5 [Compound 7f, 5′-Amino-17-(cyclopropylmethyl)-6,7-didehydro-3,14-dihydroxy-4,5α-epoxypyrido[2′,3′:6,7]morphinan] |  |  | 1.5 | 1.6 | 26 | 43.3 ± 9.0 | 1.9 | 6 | 23.4 ± 4.8 | 49 |  | 0 | 12.8 ± 0.93 | 12 ± 1.2 | 8 ± 0.3 |  |  |  |
| N#Cc1c(N)sc2c1[C@@H]1Oc3c(O)ccc4c3[C@@]13CCN(CC1CC1)[C@H](C4)[C@]3(O)C2 [Compound 8a, 5′-Amino-4′-cyano-17-(cyclopropylmethyl)-6,7-didehydro-3,14-dihydroxy-4,5α-epoxythieno [2′,3′:7,6]morphinan] | 5.5 ± 0.2 | 2.6 ± 0.11 |  |  | 9.6 | 109.6 ± 12.1 | 0.9 | 0 | 160.3 ± 41.6 | 8.7 | 1.5 ± 0.12 | 0 |  |  |  | 0.6 | 2.1 |  |
| Nc1sc2c(c1C(=O)OCc1ccccc1)[C@@H]1Oc3c(O)ccc4c3[C@@]13CCN(CC1CC1)[C@H](C4)[C@]3(O)C2 [Compound 8d, 5′-Amino-4′-benzyloxycarbonyl-17-(cyclopropylmethyl)-6,7-didehydro-3,14-dihydroxy-4,5α-epoxythieno[2′,3′:7,6]morphinan] | 61 ± 3 | 7 ± 0.3 |  |  | 5 | 289 ± 13 |  | 11 |  |  | 48 ± 3 | 40 |  |  |  | 6.9 | 8.7 | 40 |
